# Test results published in patent publication US20240226106A1, “INHIBITORS OF PLASMA KALLIKREIN” (SHIRE HUMAN GENETIC THERAPIES, INC., priority 2021, published 2024).
# pEC50: −log10 of the molar value.
# Experiments:
# [1] = target: human activated kallikrein enzyme (Homo sapiens, UniProt P03952); assay: Inhibition of human activated plasma kallikrein, fluorogenic peptide substrate (PFR-AMC), 500 pM enzyme format; type: biochemical; details: 500 pM activated kallikrein, 30 min preincubation, 10 min reaction, room temperature, read-out: Primary Dose Response Assay: Average EC50
# human activated kallikrein enzyme, sequence (P03952 391-638 limits assumed): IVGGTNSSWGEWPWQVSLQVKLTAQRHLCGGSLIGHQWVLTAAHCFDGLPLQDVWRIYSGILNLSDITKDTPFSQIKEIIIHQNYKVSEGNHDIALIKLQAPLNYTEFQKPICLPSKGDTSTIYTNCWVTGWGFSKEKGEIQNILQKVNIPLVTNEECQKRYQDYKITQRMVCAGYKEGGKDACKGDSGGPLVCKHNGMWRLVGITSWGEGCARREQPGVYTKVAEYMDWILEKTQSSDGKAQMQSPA
# human activated kallikrein enzyme, sequence (P03952 20-390 partner limits assumed): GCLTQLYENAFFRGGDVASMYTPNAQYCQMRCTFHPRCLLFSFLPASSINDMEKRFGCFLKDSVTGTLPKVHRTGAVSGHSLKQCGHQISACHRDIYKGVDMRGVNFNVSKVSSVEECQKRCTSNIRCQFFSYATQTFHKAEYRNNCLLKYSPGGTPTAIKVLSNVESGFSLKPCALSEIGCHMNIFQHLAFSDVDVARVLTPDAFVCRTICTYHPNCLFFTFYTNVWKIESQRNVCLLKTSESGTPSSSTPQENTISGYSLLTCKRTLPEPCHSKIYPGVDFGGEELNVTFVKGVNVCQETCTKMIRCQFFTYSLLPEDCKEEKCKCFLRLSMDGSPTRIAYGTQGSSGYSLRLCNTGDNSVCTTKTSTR
# Summary of the method: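 Enzyme at 500 pM with […] PFR-AMC in 20 mM Tris pH 7.5, 1 mM EDTA, 150 mM NaCl, 0.1% PEG-400, 0.1% Triton X-100. Inhibitor preincubated 30 min, then 10 min reaction at room temperature; AMC fluorescence read at 380 nm excitation/460 nm emission.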
# plasma kallikrein = target: T1, plasma kallikrein (Homo sapiens, UniProt P03952); assay: Neat human plasma assay (fluorogenic peptide), contact pathway-activated plasma; type: biochemical; details: citrated human plasma, 10 nM human FXIIa activation, 100 μM PFR-AMC, room temperature; read-out: Human Plasma Assay: IC90
# T1 construct: from tissue; host or cells: sodium citrate collected human plasma
# T1 sequence (P03952 391-638 limits assumed): as the sequence (P03952 391-638 limits assumed) above
# T1 sequence (P03952 20-390 partner limits assumed): as the sequence (P03952 20-390 partner limits assumed) above
# Procedure: To analyze inhibition of plasma kallikrein in an ex vivo setting, the potency of compounds was measure in contact pathway-activated plasma assays. In a fluorogenic peptide substrate assay, test compounds dissolved in DMSO were added to sodium citrate collected human or rat plasma in a 96-well microplate. Alternatively, citrated plasma was collected from rats administered the compounds orally or by IV. 10 nM of human FXIIa (Enzyme Research Laboratories) diluted in PKa buffer (20 mM Tris-HCl, pH 7.5, 150 mM NaCl, 1 mM EDTA, 0.100 PEG-8000, and 0.1% Triton X-100) was added to the plasma, followed by the 100 μM of the profluorescent, synthetic plasma kallikrein substrate PFR-AMC (also diluted in PKa buffer). Final plasma concentration in the reaction was […]. Fluorescence was immediately monitored by excitation/emission wavelengths of 360 nm/480 nm respectively over a period of 5 minutes in a microplate reader. The resulting linear increase in fluorescence emission (reflecting PKa proteolysis of PFR-AMC substrate) was fit to extract a proteolytic rate (fluorescent units over time), and this rate was subsequently plotted against compound inhibitor concentration. Resulting plots were fit to a standard 4-parameter IC50/C90 equation to determine min/max values, IC50/90, and slope. All experimental steps were performed at room temperature.
pEC50 [1],IC90 (plasma kallikrein) [nM],Structure (SMILES)
> 8.60,500 to 5000,"O=C(Nc1nccc2nn(Cc3cn4nc(C5CC5)ccc4n3)cc12)[C@H]1C[C@@H]1c1cccc(Cl)c1 [Example 35, (1S,2S)-2-(3-chlorophenyl)-N-(2-((6-cyclopropylimidazo[1,2-b]pyridazin-2-yl)methyl)-2H-pyrazolo[4,3-c]pyridin-4-yl)cyclopropane-1-carboxamide]"
> 8.60,5000 to 65000,"CN1CCN(c2cc(C3CC3)nn3cc(CNc4cc(NC(=O)[C@H]5C[C@@H]5c5cccc(Cl)c5)ncn4)nc23)CC1 [Example 39, (1S,2S)-2-(3-chlorophenyl)-N-(6-(((6-cyclopropyl-8-(4-methylpiperazin-1-yl)imidazo[1,2-b]pyridazin-2-yl)methyl)amino)pyrimidin-4-yl)cyclopropane-1-carboxamide]"
> 8.60,500 to 5000,"CN1CCN(c2cc(C3CC3)nn3cc(CNc4ccnc(NC(=O)[C@H]5C[C@@H]5c5cccc(Cl)c5)c4)nc23)CC1 [Example 40, (1S,2S)-2-(3-chlorophenyl)-N-(4-(((6-cyclopropyl-8-(4-methylpiperazin-1-yl)imidazo[1,2-b]pyridazin-2-yl)methyl)amino)pyridin-2-yl)cyclopropane-1-carboxamide]"
> 8.60,5000 to 65000,"CN1CCN(c2cc(C3CC3)cn3nc(CNc4ccnc(NC(=O)[C@H]5C[C@@H]5c5cccc(Cl)c5)c4)nc23)CC1 [Example 45, (1S,2S)-2-(3-chlorophenyl)-N-(4-(((6-cyclopropyl-8-(4-methylpiperazin-1-yl)-[1,2,4]triazolo[1,5-a]pyridin-2-yl)methyl)amino)pyridin-2-yl)cyclopropane-1-carboxamide]"
> 8.60,5000 to 65000,"O=C(Nc1cc(NCc2cn3nc(C4CC4)ccc3n2)ccn1)[C@H]1C[C@@H]1c1cccc(Cl)c1 [Example 46, (1S,2S)-2-(3-chlorophenyl)-N-(4-(((6-cyclopropylimidazo[1,2-b]pyridazin-2-yl)methyl)amino)pyridin-2-yl)cyclopropane-1-carboxamide]"
> 8.60,500 to 5000,"O=C(Nc1cc(NCc2cc3cc(C4CC4)cc(N4CCOC4=O)n3n2)ncn1)[C@H]1C[C@@H]1c1cccc(Cl)c1 [Example 49, (1S,2S)-2-(3-chlorophenyl)-N-(6-(((5-cyclopropyl-7-(2-oxooxazolidin-3-yl)pyrazolo[1,5-a]pyridin-2-yl)methyl)amino)pyrimidin-4-yl)cyclopropane-1-carboxamide]"
7.60 to 8.60,500 to 5000,"O=C(Nc1cc(NCc2cc3cc(C4CC4)cc(N4CCCC4=O)n3n2)ncn1)[C@H]1C[C@@H]1c1cccc(Cl)c1 [Example 52, (1S,2S)-2-(3-chlorophenyl)-N-(6-(((5-cyclopropyl-7-(2-oxopyrrolidin-1-yl)pyrazolo[1,5-a]pyridin-2-yl)methyl)amino)pyrimidin-4-yl)cyclopropane-1-carboxamide]"
> 8.60,500 to 5000,"CN1CCN(c2cc(C3CC3)cc3cc(CNc4cc(NC(=O)[C@H]5C[C@@H]5c5cccc(Cl)c5)ncn4)nn23)CC1 [Example 53, (1S,2S)-2-(3-chlorophenyl)-N-(6-(((5-cyclopropyl-7-(4-methylpiperazin-1-yl)pyrazolo[1,5-a]pyridin-2-yl)methyl)amino)pyrimidin-4-yl)cyclopropane-1-carboxamide]"
> 8.60,500 to 5000,"CN1CCN(c2cc(C3CC3)cc3cc(CNc4ccnc(NC(=O)[C@H]5C[C@@H]5c5cccc(Cl)c5)c4)nn23)CC1 [Example 54, (1S,2S)-2-(3-chlorophenyl)-N-(4-(((5-cyclopropyl-7-(4-methylpiperazin-1-yl)pyrazolo[1,5-a]pyridin-2-yl)methyl)amino)pyridin-2-yl)cyclopropane-1-carboxamide]"
